Target: T1, human TPO receptor (hTPOR) (Homo sapiens, UniProt P40238)
T1 construct: expressed in transfected cells; host or cells: BaF-B03 (murine IL-3 dependent cell line)
T1 sequence (P40238 26-635): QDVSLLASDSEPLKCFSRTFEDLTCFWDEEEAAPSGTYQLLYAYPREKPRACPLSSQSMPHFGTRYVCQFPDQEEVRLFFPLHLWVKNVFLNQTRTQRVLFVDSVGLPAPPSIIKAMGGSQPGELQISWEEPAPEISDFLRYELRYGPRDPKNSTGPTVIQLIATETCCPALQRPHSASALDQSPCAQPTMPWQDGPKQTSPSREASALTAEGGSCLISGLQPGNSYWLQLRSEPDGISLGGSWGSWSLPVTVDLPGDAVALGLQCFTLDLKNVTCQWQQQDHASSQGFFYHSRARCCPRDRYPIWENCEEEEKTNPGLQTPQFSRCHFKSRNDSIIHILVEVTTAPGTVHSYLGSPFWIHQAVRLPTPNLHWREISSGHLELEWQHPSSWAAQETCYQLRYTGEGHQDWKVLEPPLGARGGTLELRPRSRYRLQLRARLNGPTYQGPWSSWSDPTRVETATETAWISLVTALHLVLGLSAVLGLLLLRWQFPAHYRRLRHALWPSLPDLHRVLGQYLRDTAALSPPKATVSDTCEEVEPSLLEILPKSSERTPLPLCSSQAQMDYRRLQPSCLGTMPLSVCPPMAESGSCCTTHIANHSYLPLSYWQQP
Assay: Thrombopoietic activity: proliferation of TPO dependent BaF/hTPOR cells (WST-1, absorbance at 450 nm)
Type: cell-based
Details: 20 h + 4 h WST-1, ED50 = half concentration of the concentration showing the maximum thrombopoietic activity, Table 1
Description: The TPO dependent BaF/hTPOR cell line which was established by introducing human TPO receptor (hTPOR) into BaF-B03 cells according to Collins et al (J. Cell. Physiol., 137:293-298 (1988)) was used to test the thrombopoietic activity of the present compound. The DNA sequences and encoded peptide sequences for human hTPOR have been described by Vigon et al (Proc. Natl. Acad. Sci. USA, 89:5640-5644 (1992)). TPO dose not have any ability to support proliferation of interlukin-3 dependent parental cell line BaF-B03. BAF/hTPOR cells were maintained in RPMI medium and WEHI-3B conditioned medium as a source of murine interleukin-3 (IL-3). These cells were washed and resuspended in RPMI medium without a source of murine IL-3 and seeded into each well of 96-well microtiter plates at a density of 5×10^4 cells per well in the absence or presence of various concentration of hTPO or the present compound. After incubation at 37° C. for 20 hours in the 5% CO2 incubator, 10% WST-1 reagent (Takara Biomedicals, Japan) was added to each wells and the cells were further incubated for 4 hours. The absorbance at 450 nm was measured. Tables 1 and 2 exemplify the ED50 for tested compounds of the present invention, wherein the ED50 is the half concentration of the concentration showing the maximum thrombopoietic activity.

Row | Structure (SMILES) | EC50 [nM]
1 | CCCCCCc1cccc2c1OCc1sc(NC(=O)c3cc(Cl)c(/C=C(\C)C(=O)O)c(Cl)c3)nc1-2 [Compound A1316, (E)-3-[2,6-dichloro-4-(6-hexyl-4H-chromeno[4,3-d]thiazol-2-ylcabamoyl)phenyl]-2-methylacrylic acid] | 5.29
2 | C/C(=C\c1c(Cl)cc(C(=O)Nc2nc3c(s2)COc2c(CCC(C)(C)C)cccc2-3)cc1Cl)C(=O)O [Compound A1317, (E)-3-{2,6-dichloro-4-[6-(3,3-dimethylbutyl)-4H-chromeno[4,3-d]thiazol-2-ylcabamoyl]phenyl}-2-methylacrylic acid] | 15.1
3 | CCCCCC(OC)c1cccc(-c2csc(NC(=O)c3cc(F)c(C=C(C)C(=O)O)c(F)c3)n2)c1F (centres unmarked) [Compound B1, 3-(2,6-difluoro-4-{4-[2-fluoro-3-(1-methyloxyhexyl)phenyl]thiazol-2-ylcarbamoyl}phenyl)-2-methylacrylic acid] | 2.2
4 | CC(=Cc1c(F)cc(C(=O)Nc2nc(-c3cccc(CCC(C)(C)C)c3F)cs2)cc1F)C(=O)O [Compound B2, 3-(2,6-difluoro-4-{4-[3-(3,3-dimethylbutyl)-2-fluorophenyl]thiazol-2-ylcarbamoyl}phenyl)-2-methylacrylic acid] | 4
5 | CCOC(c1cccc(-c2csc(NC(=O)c3cc(F)c(C=C(C)C(=O)O)c(F)c3)n2)c1F)C1CCCCC1 (centres unmarked) [Compound B6, 3-(4-{4-[3-(1-cyclohexyl-1-ethyloxymethyl)-2-fluorophenyl]thiazol-2-ylcarbamoyl}-2,6-difluorophenyl)-2-methylacrylic acid] | 2.4
6 | COC(c1cccc(-c2csc(NC(=O)c3cc(F)c(C=C(C)C(=O)O)c(F)c3)n2)c1F)(C(C)C)C(C)C [Compound B7, 3-(2,6-difluoro-4-{4-[2-fluoro-3-(2,4-dimethyl-3-methyloxy-3-pentyl)phenyl]thiazol-2-ylcarbamoyl}phenyl)-2-methylacrylic acid] | 3.6
7 | CCCC(CCC)(OC)c1cccc(-c2csc(NC(=O)c3cc(F)c(C=C(C)C(=O)O)c(F)c3)n2)c1F [Compound B8] | 4
8 | CCCCCCCCCC(OC)c1cccc(-c2csc(NC(=O)c3cc(F)c(C=C(C)C(=O)O)c(F)c3)n2)c1F (centres unmarked) [Compound B9, 3-(2,6-difluoro-4-{4-[2-fluoro-3-(1-methyloxydecyl)phenyl]thiazol-2-ylcarbamoyl}phenyl)-2-methylacrylic acid] | 1.6
9 | CCOC(c1cccc(-c2csc(NC(=O)c3cc(F)c(C=C(C)C(=O)O)c(F)c3)n2)c1F)C(C)(C)C (centres unmarked) [Compound B10, 3-(2,6-difluoro-4-{4-[3-(1-ethyloxy-2,2-dimethylpropyl)-2-fluorophenyl]thiazol-2-ylcarbamoyl}phenyl)-2-methylacrylic acid] | 1.9
10 | COC(CCC(C)C)c1cccc(-c2csc(NC(=O)c3cc(F)c(C=C(C)C(=O)O)c(F)c3)n2)c1F (centres unmarked) [Compound B11, 3-(2,6-difluoro-4-{4-[2-fluoro-3-(1-methyloxy-4-methylpentyl)phenyl]thiazol-2-ylcarbamoyl}phenyl)-2-methylacrylic acid] | 0.81
11 | CCC(CCCc1cccc(-c2csc(NC(=O)c3cc(F)c(C=C(C)C(=O)O)c(F)c3)n2)c1F)OC (centres unmarked) [Compound B12, 3-(2,6-difluoro-4-{4-[2-fluoro-3-(4-methyloxyhexyl)phenyl]thiazol-2-ylcarbamoyl}phenyl)-2-methylacrylic acid] | 2.1
12 | COC(c1cccc(-c2csc(NC(=O)c3cc(F)c(C=C(C)C(=O)O)c(F)c3)n2)c1F)C(C)(C)C (centres unmarked) [Compound B13, 3-(2,6-difluoro-4-{4-[2-fluoro-3-(1-methyloxy-2,2-dimethylpropyl)phenyl]thiazol-2-ylcarbamoyl}phenyl)-2-methylacrylic acid] | 1
13 | CCCCCOC(c1cccc(-c2csc(NC(=O)c3cc(F)c(C=C(C)C(=O)O)c(F)c3)n2)c1F)C1CCCCC1 (centres unmarked) [Compound B14, 3-(4-{4-[3-(1-cyclohexyl-1-n-pentyloxymethyl)-2-fluorophenyl]thiazol-2-ylcarbamoyl}-2,6-difluorophenyl)-2-methylacrylic acid] | 0.73
14 | CCCCCOC(c1cccc(-c2csc(NC(=O)c3cc(F)c(C=C(C)C(=O)O)c(F)c3)n2)c1F)C(C)(C)C (centres unmarked) [Compound B15, 3-(2,6-difluoro-4-{4-[3-(2,2-dimethyl-1-n-pentyloxypropyl)-2-fluorophenyl]thiazol-2-ylcarbamoyl}phenyl)-2-methylacrylic acid] | 0.73
15 | CCCCCOC(CCSC)c1cccc(-c2csc(NC(=O)c3cc(F)c(C=C(C)C(=O)O)c(F)c3)n2)c1F (centres unmarked) [Compound B16, 3-(2,6-difluoro-4-{4-[2-fluoro-3-(3-methylthio-1-n-pentyloxypropyl)phenyl]thiazol-2-ylcarbamoyl}phenyl)-2-methylacrylic acid] | 0.77
16 | CCCCCOC(CC)c1cccc(-c2csc(NC(=O)c3cc(F)c(C=C(C)C(=O)O)c(F)c3)n2)c1F (centres unmarked) [Compound B19, 3-(2,6-difluoro-4-{4-[2-fluoro-3-(1-n-pentyloxypropyl)phenyl]thiazol-2-ylcarbamoyl}phenyl)-2-methylacrylic acid] | 0.73
17 | CC(=Cc1c(F)cc(C(=O)Nc2nc(-c3cccc(CCCOCC(C)(C)C)c3F)cs2)cc1F)C(=O)O [Compound B20] | 0.81
18 | CCOCCCCOC(c1cccc(-c2csc(NC(=O)c3cc(F)c(C=C(C)C(=O)O)c(F)c3)n2)c1F)C1CCCCC1 (centres unmarked) [Compound B21, 3-[4-(4-{3-[1-cyclohexyl-1-(4-ethyloxybutyloxy)methyl]-2-fluorophenyl]thiazol-2-ylcarbamoyl}-2,6-difluorophenyl)-2-methylacrylic acid] | 0.67
19 | CCOCCCCOC(CC)c1cccc(-c2csc(NC(=O)c3cc(F)c(C=C(C)C(=O)O)c(F)c3)n2)c1F (centres unmarked) [Compound B22, 3-[2,6-difluoro-4-(4-{3-[1-(4-ethyloxybutyloxy)propyl]-2-fluorophenyl}thiazol-2-ylcarbamoyl)phenyl]-2-methylacrylic acid] | 1.14
20 | CCCCCCC(OC)c1cccc(-c2csc(NC(=O)c3cc(F)c(C=C(C)C(=O)O)c(F)c3)n2)c1F (centres unmarked) [Compound B23, 3-(2,6-difluoro-4-{4-[2-fluoro-3-(1-methyloxyheptyl)phenyl]thiazol-2-ylcarbamoyl}phenyl)-2-methylacrylic acid] | 1.23
21 | CCCC(OCC)c1cccc(-c2csc(NC(=O)c3cc(F)c(C=C(C)C(=O)O)c(F)c3)n2)c1F (centres unmarked) [Compound B24, 3-(2,6-difluoro-4-{4-[3-(1-ethyloxybutyl)-2-fluorophenyl]thiazol-2-ylcarbamoyl}phenyl)-2-methylacrylic acid] | 1.97
22 | CCCCCCCC(OC)c1cccc(-c2csc(NC(=O)c3cc(F)c(C=C(C)C(=O)O)c(F)c3)n2)c1F (centres unmarked) [Compound B25, 3-(2,6-difluoro-4-{4-[2-fluoro-3-(1-methyloxyoctyl)phenyl]thiazol-2-ylcarbamoyl}phenyl)-2-methylacrylic acid] | 0.93
23 | CCCCCOC(CCCC)c1cccc(-c2csc(NC(=O)c3cc(F)c(C=C(C)C(=O)O)c(F)c3)n2)c1F (centres unmarked) [Compound B26, 3-(2,6-difluoro-4-{4-[2-fluoro-3-(1-n-pentyloxypentyl)phenyl]thiazol-2-ylcarbamoyl}phenyl)-2-methylacrylic acid] | 0.39
24 | CCCCC(OCC)c1cccc(-c2csc(NC(=O)c3cc(F)c(C=C(C)C(=O)O)c(F)c3)n2)c1F (centres unmarked) [Compound B27, 3-(2,6-difluoro-4-{4-[3-(1-ethyloxypentyl)-2-fluorophenyl]thiazol-2-ylcarbamoyl}phenyl)-2-methylacrylic acid] | 0.75
25 | CCCCCCCCC(OC)c1cccc(-c2csc(NC(=O)c3cc(F)c(C=C(C)C(=O)O)c(F)c3)n2)c1F (centres unmarked) [Compound B28, 3-(2,6-difluoro-4-{4-[2-fluoro-3-(1-methyloxynonyl)phenyl]thiazol-2-ylcarbamoyl}phenyl)-2-methylacrylic acid] | 0.79
26 | CCCCCCCCOC(C)c1cccc(-c2csc(NC(=O)c3cc(F)c(C=C(C)C(=O)O)c(F)c3)n2)c1F (centres unmarked) [Compound B30, 3-(2,6-difluoro-4-{4-[2-fluoro-3-(1-n-octyloxyethyl)phenyl]thiazol-2-ylcarbamoyl}phenyl)-2-methylacrylic acid] | 0.78
